Like-named read-outs stand apart in the source and are kept apart here.
Key:
D9 [1] = target: T1, D9 (Vaccinia virus, UniProt P04311); test: Time-dependent fluorescence changes of probes 1a-1e on D9 cleavage; type: biochemical; details: probe 100 nM, D9 50 nM, pH 7.5 (Figure S1)
T1 construct: His-tag (C); made in house
Procedure: Fluorescence emission spectra were recorded using the Agilent Cary Eclipse fluorescence spectrophotometer equipped with the xenon lamp under temperature-controlled conditions. All experiments were performed at 37 °C in the Hellma quartz cuvette (10 × 4 mm) with a sample volume 1000 μL in 10 mM Tris·HCl (pH 7.5), 100 mM KOAc, 2 mM MgCl2, 0.5 mM MnCl2, and 2 mM DTT. Before each measurement, the buffer was degassed. Emission spectra were registered for all excitation maxima (detailed wavelengths for each probe: 1a—exc. 490/em. 512 nm; 1b, 1d, and 1e—345/378 nm; and 1c—420/489 nm).

D9 [2] = target: T1, D9; details: cited from earlier work
VACV D9 decapping enzyme = target: T2, VACV D9 decapping enzyme (Vaccinia virus, UniProt P04311); test: biochemical; type: biochemical
T2 construct: His-tag (C); made in house
Procedure: (§1) Point fluorescence measurements were performed using the BioTek Synergy H1 microplate reader. Before each measurement, the reaction buffer was degassed. Experiments were performed in the Greiner 96-well, black, non-binding plates at 30 °C. Before the measurement, the plate was preincubated for 15 min at 30 °C with mixing (300 rpm). The point fluorescence was registered with 1 min interval and detection at 345 nm excitation wavelength and 378 nm emission wavelength.
Experiments to determine IC50 parameters were performed as point fluorescence measurements. Each well contained an appropriate buffer (10 mM MOPS·HCl, pH 7.0, 100 mM KOAc, containing 2 mM MgCl2, 0.3 mM MnCl2, and 2 mM DTT) with addition of 0.1% BSA, a fluorescent substrate (3 μM of probe 1b), an inhibitor (in half-logarithmic dilution, cinh ∈ 0, 100 μM), and an enzyme (5 nM of D9) to a final volume of 150 μL. To determine the IC50 values, a three parameter dose–response formula with standard hill slope from GraphPad Prism software was fitted [drawing 3] where V/V0 is the relative initial rate of the reaction, Imin and Imax are bottom and top plateaus, and Cinh is the concentration of the inhibitor.

D9 [3] = target: T1, D9; type: biochemical; details: 30 μM compound, 25 nM D9, 30 °C, 2 h, RP HPLC
SpDcp1/Dcp2 = details: cited from earlier work
VACV D10 = target: T3, VACV D10 (Vaccinia virus, UniProt P04312); type: biochemical
T3 construct: made in house

human Dcp1/2 complex = target: T4, human Dcp1/2 complex (Homo sapiens, UniProt Q8IU60); type: biochemical; details: 11 nM hDcp1/2, inhibitor up to 100 μM, 37 °C, 1 h
T4 construct: His-tag; made in house; host or cells: E. coli BL21(DE3) RIL

[4] = tested on: C[n+]1cn([C@@H]2O[C@H](COP(=O)(O)OP(=O)([O-])OP(=O)(O)CCc3cn(CCOCCOCCNC(=O)Cc4ccc5ccc6cccc7ccc4c5c67)nn3)[C@@H](O)[C@H]2O)c2nc(N)[nH]c(=O)c21; test: Michaelis-Menten kinetics of probe 1b hydrolysis by D9; type: biochemical, Vaccinia virus; details: other: probe 0-15 μM, 5 nM D9; means of three experiments ± SEM; pH 7.0; 30.0 °C
Procedure: as §1
To determine the kinetic parameters of enzymatic hydrolysis of probe 1b by D9 enzyme, point fluorescence measurements were performed. Each well of the plate contained an appropriate buffer (10 mM MOPS·HCl, pH 7.0, 100 mM KOAc, containing 2 mM MgCl2, 0.3 mM MnCl2, and 2 mM DTT) with addition of 0.1% BSA, a substrate (probe 1b at a concentration range 0–15 μM) and an enzyme (5 nM of D9) to a final volume of 150 μL. The measurement was carried out on until full saturation, which allowed us to convert the initial rates from au/min to mol/min/mg. The initial rates were calculated by fitting a linear curve to the first 10 points (10 min) of the hydrolysis reaction. […]

[5] = in-house nucleotide library (Table S1, Figure 3), 3 μM probe 1b, 5 nM D9, 30 °C, means of 3 independent experiments ± SEM, read-out: IC50, nucleotide-derived compounds, FLINT HTS assay
[6] = read-out: IC50, nucleotide-derived compounds, FLINT HTS assay, in-house nucleotide library (Table S1, Figure 3), 3 μM probe 1b, 5 nM D9, 30 °C, means of 3 independent experiments ± SEM

With Cc1cc(C)n2c1C=C1C=CC(CNC(=O)CSP(=O)([O-])OP(=O)(O)OP(=O)(O)OC[C@H]3O[C@@H](n4c[n+](C)c5c(=O)[nH]c(N)nc54)[C@H](O)[C@@H]3O)=[N+]1[B-]2(F)F [Compound 1a, m^7GTPγS-BODIPY-FL] the “time to complete hydrolysis by D9” value (D9 [1]) was ~ 40 min.
For C[n+]1cn([C@@H]2O[C@H](COP(=O)(O)OP(=O)([O-])OP(=O)(O)CCc3cn(CCOCCOCCNC(=O)Cc4ccc5ccc6cccc7ccc4c5c67)nn3)[C@@H](O)[C@H]2O)c2nc(N)[nH]c(=O)c21 [Compound 1b, m^7GTP-Py], the “time to complete hydrolysis by D9” value (D9 [1]) was ~ 40 min.
For C[n+]1cn([C@@H]2O[C@H](COP(=O)([O-])OP(=O)(O)O)[C@@H](O)[C@H]2O)c2nc(N)[nH]c(=O)c21 [m7GDP], the “D9 inhibition (literature)” value (D9 [2]) is listed as “less potent D9 inhibitors” and the IC50 (VACV D9 decapping enzyme) is listed as 14.2 ± 2.4 µM.
In the case of Cn1c[n+]([C@@H]2O[C@H](COP(=O)([O-])OP(=O)(O)OP(=O)(O)O)[C@@H](O)[C@H]2O)c2nc(N)[nH]c(=O)c21 [m7GTP], the “D9 inhibition (literature)” value (D9 [2]) is listed as “less potent D9 inhibitors”, the IC50 (VACV D9 decapping enzyme; [5]) is listed as 0.77 ± 0.06 µM and the “susceptibility to hydrolysis by D9” value (D9 [3]) is listed as “very poor D9 substrates”.
For C[n+]1cn([C@@H]2O[C@H](COP(=O)([S-])OP(=O)(O)OP(=O)(O)OP(=O)([S-])OC[C@H]3O[C@@H](n4c[n+](C)c5c(O)nc(N)nc54)[C@H](O)[C@@H]3O)[C@@H](O)[C@H]2O)c2nc(N)nc(O)c21 (some centres unmarked) [m7GpSpppSm7G D3], the “inhibition of yeast decapping enzyme SpDcp1/Dcp2 (literature)” value (SpDcp1/Dcp2) is given as “inhibitor” and the IC50 (VACV D9 decapping enzyme; [6]) is given as 3.6 ± 0.4 µM.
In the case of C[n+]1cn([C@@H]2O[C@H](COP(=O)(O)OP(=O)([O-])OP(=O)(O)CP(=O)(O)O)[C@@H](O)[C@H]2O)c2nc(N)nc(O)c21 [m7GpppCH2p], the IC50 (VACV D9 decapping enzyme; [6]) is reported as about 0.08 µM and the “inhibitory activity toward D10” value (VACV D10) is reported as “weak inhibitory activity”.
For Cn1c[n+]([C@@H]2O[C@H](COP(=O)(O)OP(=O)([O-])OP(=O)(O)OC[C@H]3O[C@@H](n4cnc5c(=O)[nH]c(N)nc54)[C@H](O)[C@@H]3O)[C@@H](O)[C@H]2O)c2nc(N)[nH]c(=O)c21 [m7GpppG], the “D9 inhibition (literature)” value (D9 [2]) is given as “less potent D9 inhibitors”, the IC50 (VACV D9 decapping enzyme; LOPAC hits and reference compounds (Table 2), 3 μM probe 1b, 5 nM D9, 30 °C, mean ± SEM of three experiments, read-out: IC50, inhibitors identified by HTS screening) is given as 15 ± 2 µM and the IC50 (VACV D9 decapping enzyme; [5]) is given as 11.3 ± 1.9 µM. For the same compound, the “susceptibility to hydrolysis by D9” value (D9 [3]) was “very poor D9 substrates”.
In the case of CC[C@H](CO)Nc1nc(NCc2ccccc2)c2ncn(C(C)C)c2n1 [seliciclib, reference compound], the “inhibitory activity toward Dcp1/2” value (human Dcp1/2 complex) is reported as “very low inhibitory activity” and the “inhibitory activity toward D10” value (VACV D10) is reported as “very low inhibitory activity”.
With Gpp-SCH2-triazole-m7G the IC50 (VACV D9 decapping enzyme; [5]) was over 100 µM.
With Gpp-triazole-m7G the IC50 (VACV D9 decapping enzyme; [5]) was over 100 µM.
With Gppp-SCH2-triazole-m7G the IC50 (VACV D9 decapping enzyme; [5]) was over 100 µM.
Work on Gppp-triazole-m7G yielded an IC50 (VACV D9 decapping enzyme; [5]) of 35 ± 5.3 µM.
“VACV D9 decapping enzyme (Vaccinia virus WR)” showed a Km [4] of 12.9 ± 2.2 µM and a kcat/Km [4] of 6300 ± 1200 M⁻¹ s⁻¹.
In the case of m7GNpppG, the IC50 (VACV D9 decapping enzyme; [5]) is reported as 32.1 ± 5.9 µM.
Compound m7Gmppp6SG has an IC50 (VACV D9 decapping enzyme; [5]) of 7.2 ± 1.1 µM.
m7Gpp-SCH2-triazole-G showed an IC50 (VACV D9 decapping enzyme; [5]) of 46 ± 6.8 µM.
m7Gpp-triazole-G showed an IC50 (VACV D9 decapping enzyme; [5]) of 17.5 ± 2.6 µM.
m7GppCCl2ppm7G gave an IC50 (VACV D9 decapping enzyme; [5]) of 28.8 ± 4.1 µM.
Work on m7GppCCppG yielded an IC50 (VACV D9 decapping enzyme; [5]) of 24.4 ± 4 µM.
m7Gppp m6AmpG showed an IC50 (VACV D9 decapping enzyme; [5]) of 17.4 ± 3 µM.
Compound m7Gppp-SCH2-triazole-G has an IC50 (VACV D9 decapping enzyme; [5]) of 24.9 ± 4.8 µM.
With m7GpppApG the IC50 (VACV D9 decapping enzyme; [5]) was 11.3 ± 2 µM.
